# How the values were obtained:
# FXR receptor = target: T1, FXR receptor (Homo sapiens, UniProt Q96RI1); experiment: FXR activity at the cell level (FXRE luciferase reporter in 293T cells); type: cell-based; details: 293T cells; for Activity relative to OCA (%) 10 μM: luciferase reporter; for EC50: FXRE luciferase reporter, read-out: EC50 (cell level)
# T1 construct: expressed in transfected cells; host or cells: 293T cells
# T1 sequence (Q96RI1 1-486): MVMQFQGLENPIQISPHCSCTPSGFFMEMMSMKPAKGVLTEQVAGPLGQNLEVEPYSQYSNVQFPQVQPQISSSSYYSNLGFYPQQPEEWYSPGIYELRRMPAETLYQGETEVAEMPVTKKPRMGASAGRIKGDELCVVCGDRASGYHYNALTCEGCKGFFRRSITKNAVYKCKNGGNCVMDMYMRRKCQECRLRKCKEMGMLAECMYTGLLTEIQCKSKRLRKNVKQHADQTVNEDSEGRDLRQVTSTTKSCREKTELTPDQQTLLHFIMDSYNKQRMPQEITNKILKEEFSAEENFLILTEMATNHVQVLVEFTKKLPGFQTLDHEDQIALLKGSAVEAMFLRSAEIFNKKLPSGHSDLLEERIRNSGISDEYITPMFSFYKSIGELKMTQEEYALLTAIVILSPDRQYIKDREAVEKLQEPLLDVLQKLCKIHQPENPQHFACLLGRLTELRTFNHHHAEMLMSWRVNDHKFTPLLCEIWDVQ
# Protocol: The cells were cultured for 24 hours to ensure plasmid expression. Then the FXR receptor agonist to be tested was added and acted for 18 hours. The fluorescence intensity was detected using luciferase kit (steady-Glo Luciferase Assay system) to reflect the compound's activation efficiency on the FXR receptor. […] The appropriate concentration interval was selected, and the dose-dependent relationship, that is, the EC50 value, was calculated.
# [1] = test system: CCL4-induced hepatic fibrosis model mice; experiment: CCL4-induced hepatic fibrosis model mice; type: in vivo, mouse
# Protocol: In this experiment, CCL4 induced hepatic fibrosis model mice were used to investigate the effect of long-term oral administration of compound 8 on hepatic fibrosis in the model mice.
# Experimental method: Male C57BL/6j mice were injected intraperitoneally with 2 mL/kg, 10% CCl4 (dissolved in olive oil) three times a week to induce liver fibrosis model. Two weeks after the model was made, the blood was taken from the retro-ocular venous plexus of the mice to detect serum ALT, AST, TBA and LDH indicators. According to ALT, AST, TBA, LDH, body weight and other indicators, the mice were randomly divided into 5 groups. […] During the administration period, the animals' food intake and body weight were monitored. After 3 weeks of administration, the blood was taken from the retro-ocular venous plexus of the mice to detect serum ALT, AST, TBA and LDH indicators. After 6 weeks of administration, the blood was taken from the retro-ocular venous plexus and the mice were dislocated and sacrificed. The livers were taken out and weighed. Part of the liver was fixed with 4% paraformaldehyde, and part of the liver was frozen at −80° C. During the whole experiment, another 10 mice in the same cage were intraperitoneally injected with the same volume of olive oil as the system normal control group (WT).
# This experiment detected indicators such as the levels of liver function indicators ALT, AST, TBA, LDH in serum, the expression of α-SMA and Col1α1 gene levels in the liver, and the pathological changes of the liver (Sirius scarlet stain), etc., thereby reflecting whether the compound has the effect of relieving liver fibrosis.
# [2] = target: T2, recombinant GST-FXR fusion protein (Homo sapiens, UniProt Q96RI1); experiment: FXR activity at the molecular level (AlphaScreen); type: biochemical
# T2 sequence (Q96RI1 1-486): T1 sequence (Q96RI1 1-486)
# Protocol: Test Method for FXR Activity at the Molecular Level
# FXR activity was determined using recombinant GST-FXR fusion protein by Perkin Elmer's AlphaScreen detection reagent. The reaction in this method was carried out in a 384-well plate, and the total reaction volume was 15 μL. The mixture of protein, agonist, co-regulatory factor, AlphaScreen® acceptor beads and AlphaScreen® donor beads was reacted in a buffer containing Tris-HCl 50 mM (pH7.4), 50 mM NaCl, BSA 0.1%, and 1 mM DTT. The FXR activity was reflected by the fluorescence signal intensity at 570 nm wavelength detected by the Envision fluorescence detector. The value of EC50 was calculated by the software Graphpad Prism 5.
# [3] = test system: TAA-induced hepatic fibrosis model rats; experiment: TAA-induced hepatic fibrosis model rats; type: in vivo, rat
# Protocol: 1) Pharmacodynamic Evaluation of Compound 1 (LXF-32) on TAA-Induced Hepatic Fibrosis Model Rats
# In this experiment, TAA induced hepatic fibrosis model rats were used to investigate the effect of long-term oral administration of compound 1 on hepatic fibrosis in the model rats.
# Experimental method: Male SD rats were intraperitoneally injected with thioacetamide (TAA, dissolved in normal saline) at a dose of 150 mg/kg three times a week to induce a liver fibrosis model. Four weeks after the model was made, the blood was taken from the retro-ocular venous plexus of the rats to detect serum ALP indicators. […] During the administration period, the animal's food intake and body weight were monitored. After 2 weeks of administration, the blood was taken from the retro-ocular venous plexus of the rats to detect serum ALP indicators. After 4 weeks of administration, the blood was taken from the retro-ocular venous plexus and the rats were dislocated and sacrificed. The livers were taken out and weighed. Part of the liver was fixed with 4% paraformaldehyde, and part of the liver was frozen at −80° C. During the whole experiment, another 8 rats in the same cage were injected intraperitoneally with the same volume of normal saline as the system normal control group (WT). This experiment detected indicators such as the level of liver function index ALP in serum, the expression of α-SMA and Col1α1 (fibrosis-related genes) gene level in the liver, the content of hydroxyproline (a characteristic amino acid of collagen) in the liver, and the pathological changes of the liver (Sirius scarlet stain), etc., thereby reflecting whether the compound has the effect of relieving liver fibrosis.
# [4] = high-dose 20 mg/kg oral once a day, 6 weeks
# [5] = low-dose 6 mg/kg oral once a day, 6 weeks
# [6] = 20 mg/kg oral once a day, 4 weeks
smiles,measurement,setting,value
O=c1[nH]c(-c2ccc(N3CCC(OCc4c(-c5ccccc5C(F)(F)F)noc4C4CC4)CC3)cc2)no1 [Example 8],Activity relative to OCA (%) 10 μM,FXR receptor,88%
same,EC50,FXR receptor,5 nM
same,collagen content in the liver (Sirius scarlet stained sections),[1]; high-dose 20 mg/kg,significantly reduced
same,effect on LDH in serum,[1]; [4],little effect
same,level of ALT in serum,[1]; [4],significantly reduced
same,level of AST in serum,[1]; [4],significantly reduced
same,level of TBA in serum,[1]; [4],significantly reduced
same,expression of col1α1 in the liver,"[1]; high-dose 20 mg/kg, 6 weeks",down-regulated
same,expression of α-SMA in the liver,"[1]; high-dose 20 mg/kg, 6 weeks",significantly down-regulated
same,effect on liver fibrosis (summary),[1]; long-term administration,a certain alleviating effect
same,collagen content in the liver (Sirius scarlet stained sections),[1]; low-dose 6 mg/kg,significantly reduced
same,effect on liver collagen content compared with the low-dose OCA group,[1]; low-dose 6 mg/kg,slightly better
same,effect on LDH in serum,[1]; [5],little effect
same,level of ALT in serum,[1]; [5],significantly reduced
same,level of AST in serum,[1]; [5],significantly reduced
same,level of TBA in serum,[1]; [5],significantly reduced
same,effect on serum liver function indicators compared with the low-dose OCA group,"[1]; low-dose 6 mg/kg, 6 weeks",slightly better
same,EC50,[2],104 nM
O=c1[nH]c(-c2cccc(N3CCC(OCc4c(-c5c(Cl)cccc5Cl)noc4C4CC4)CC3)c2)no1 [Example 1],collagen content in the liver (Sirius scarlet stained sections),[3]; [6],"reduced the collagen content in the liver, because there were large differences within the model group, and there was no statistical difference"
same,content of hydroxyproline in liver tissue,[3]; [6],reduced
same,expression of Col1α1 mRNA in liver tissue,[3]; [6],significantly down-regulated
same,expression of α-SMA mRNA in liver tissue,[3]; [6],significantly down-regulated
same,level of ALP in serum,"[3]; 20 mg/kg oral once a day, 4 weeks, vs model control",significantly reduced
same,effect on liver fibrosis (summary),[3]; long-term administration,a certain alleviating effect
same,Activity relative to OCA (%) 10 μM,FXR receptor,109%
same,EC50,FXR receptor,110 nM
same,EC50,[2],446 nM
"CC[C@H]1[C@@H](O)[C@@H]2[C@H](CC[C@]3(C)[C@@H]([C@H](C)CCC(=O)O)CC[C@@H]23)[C@@]2(C)CC[C@@H](O)C[C@@H]12 [OCA, reference compound]",level of ALT in serum,[1]; [4],significantly reduced
same,level of AST in serum,[1]; [4],significantly reduced
same,level of TBA in serum,[1]; [4],significantly reduced
same,level of TBA in serum,[1]; [5],lowering effect
